Converted amounts (≈) assume the structure as drawn. Where two headings read alike, the source gives them in different places.
How the values were obtained:
[1] = test system: A. fumigatis; experiment: Antifungal MIC, A. fumigatis; assay type: cell-based; details: A. fumigatis (Table 3)
Method: [The source words this procedure for another organism and reports this organism under the same test.] (§1) A 10 mL tube containing 4 mL of Sabourauds dextrose broth was inoculated with 1 colony of Candida albicans picked from a plate of pure culture. The strain was ordered from the American Type Culture Collection (ATCC). The organism was grown for 4 hours at 30° C. while shaking at 150 RPM. While the organism was growing, samples of hydroxy-itraconazoles were solubilized to a concentration of 10 mg/mL in DMSO. Each sample was then diluted 1:10 to make 1 mg/mL samples or 1000 μg/mL. These samples were then diluted by serial 2-fold dilutions to produce samples now containing 1000, 500, 250, 125, 62.5, 31.25, 15.6 μg/mL. […] At 4 hours of growth time the Candida albicans was diluted to a 0.5 McFarland standard representing about 10^5 -10^6 cells/mL and 1 μL of this inoculum placed into each test well of the microtiter dish. The dish was then covered and incubated at 30° C. for 16 hours.

[2] = Water solubility of hydroxyitraconazole isomers and itraconazole; assay type: physicochemical; details: for Water solubility / solubility: LOD: 5000 μV*sec, order-of-magnitude accuracy below LOD, 3+4 and 11+12 ±10%; for Area: λmax = 260 nm, LOD 5000 μV*sec; for solubility: water
Method: The isomers of cis hydroxyitraconazole were tested for water solubility against a […] standard solution of hydroxyitraconazole. […] The values for 3+4 and 11+12 are barely above the LOD, giving accuracies of ±10%. In every case, solubilities were in the 10^1 to 10^2 ng/ml range.

[3] = test system: Sacchromyces cerevisae; experiment: Kirby-Bauer Testing, Saccharomyces cerevisiae; assay type: cell-based; details: 10 μl of 10 mg/mL per disk, 30° C., 16 hours; for zone of inhibition at 10000 µg/mL: Saccharomyces cerevisiae
Method: The hydroxyitraconazole isomers were tested for biological activity according three different assays.
Actively growing cultures of Candida albicans, Cryptococcus neoformens and Saccharomyces cerevisiae were prepared as described above. The cultures were diluted to a 0.5 McFarland standard and swabbed onto a 150 mm Sabouraud Dextrose agar plates. Paper disks (7 mm) were placed onto the agar plates using a disk dispenser. […] The plates were then incubated at 30° C. for 16 hours. Zones of inhibition were then measured in mm.

[4] = biological target: T1, cytochrome P450 3A4 (Homo sapiens, UniProt P08684); experiment: Inhibition of cytochrome P450 3A4 (testosterone 6β-hydroxylase activity); details: for IC50/MIC ratio in words: therapeutic index, 3A4 vs C. albicans 44203
T1 sequence (P08684 whole entry): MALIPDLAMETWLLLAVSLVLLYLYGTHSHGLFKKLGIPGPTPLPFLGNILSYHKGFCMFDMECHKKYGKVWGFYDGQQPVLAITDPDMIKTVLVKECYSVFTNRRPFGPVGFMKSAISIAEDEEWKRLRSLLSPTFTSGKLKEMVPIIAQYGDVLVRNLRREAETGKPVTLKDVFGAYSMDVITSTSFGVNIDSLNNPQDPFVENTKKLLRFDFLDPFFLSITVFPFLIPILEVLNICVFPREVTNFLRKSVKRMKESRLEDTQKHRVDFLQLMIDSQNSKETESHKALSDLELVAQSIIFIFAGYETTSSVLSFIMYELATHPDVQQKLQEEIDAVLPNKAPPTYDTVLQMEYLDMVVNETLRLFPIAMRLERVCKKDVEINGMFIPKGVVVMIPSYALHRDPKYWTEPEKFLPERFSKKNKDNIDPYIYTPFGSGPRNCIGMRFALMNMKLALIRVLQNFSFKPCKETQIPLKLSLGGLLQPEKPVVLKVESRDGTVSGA

[5] = test system: Cr. neoformens; experiment: Antifungal MIC, Cr. neoformens; assay type: cell-based, Cryptococcus neoformens; details: for MIC: Cryptococcus
Method: [The source words this procedure for another organism and reports this organism under the same test.] as §1

[6] = test system: S. cerevisae; experiment: Antifungal MIC, S. cerevisae; assay type: cell-based, Saccharomyces cerevisiae; details: for MIC: Saccharomyces cerevisiae
Method: [The source words this procedure for another organism and reports this organism under the same test.] as §1

[7] = test system: Candida albicans; experiment: Antifungal MIC, Candida albicans; assay type: cell-based
Method: as §1

[8] = biological target: T1, cytochrome P450 3A4
Method: The IC50 values were determined by the appearance of 6β-hydroxytestosterone after incubation with testosterone. […] Of greater clinical significance is the ratio of the IC50 for 3A4 to the MIC for C. albicans 44203.

[9] = Water solubility of hydroxyitraconazole phosphate isomers (NMG salts); assay type: physicochemical; details: Table 8; for solubility: water
Excerpt: The water solubility of the NMG salts of the phosphate esters of isomers 1, 2 and 3+4 were investigated and compared to the corresponding hydroxyitraconazole isomers 1, 2 and 3+4. The phosphate esters were as much as 10^7 times more water soluble than the corresponding hydroxyitraconazole isomer.

[10] = test system: delayed rectifier (IK); details: cited from earlier work; for Effect on cardiac repolarization: Torsades de Pointes side effect
[11] = Hydrolysis of phosphate esters in equine pancreas; assay type: in vitro ADME; details: both free acid and bis(N-methylglucamine) salt
Method: (§2) The phosphate analogs of the isomers with the largest IC50 /MIC ratios, 1, 2 and 3+4 were further investigated for hydrolysis in plasma and tissues. […] The A% conversion (as determined by HPLC A% analysis) of the phosphate ester to the hydroxy compound was determined in three systems: human plasma, equine pancreas and porcine brain. […] Hydrolysis proceeded to >10% overnight at 37° C. in pancreas and brain, and 3% in human plasma. The hydrolyses of the three phosphates of 1, 2 and 3+4 were also studied in various rat tissues and plasma. In all cases, the jejunum and liver gave the greatest conversion to hydroxyitraconazole, ranging from 20% to 40% for the free acids.

[12] = Hydrolysis of phosphate esters in porcine brain; assay type: in vitro ADME; details: both free acid and bis(N-methylglucamine) salt
Method: as §2

[13] = Hydrolysis of phosphate esters in human plasma; assay type: in vitro ADME; details: both free acid and bis(N-methylglucamine) salt
Method: as §2

[14] = Candida albicans, C. albicans strain 28516 (Table 3), read-out: Antifungal MIC
[15] = Candida albicans, C. albicans strain 28815 (Table 3), read-out: Antifungal MIC
[16] = Candida albicans, C. albicans strain 44203 (Table 3), read-out: Antifungal MIC
[17] = Candida albicans, C. albicans strain 44373 (Table 3), read-out: Antifungal MIC
[18] = Candida albicans, Candida albicans strain 44203 (Table 4), read-out: MIC
[19] = Candida albicans, C. albicans (Table 7, esters), read-out: Antifungal MIC

C[C@H](O)[C@@H](C)n1ncn(-c2ccc(N3CCN(c4ccc(OC[C@@H]5CO[C@@](Cn6cncn6)(c6ccc(Cl)cc6Cl)O5)cc4)CC3)cc2)c1=O [Compound 10]
MIC [1]: 0.137 µg/mL (≈ 0.19 µM) | Water solubility [2]: not detected | Area [2]: not even detected | zone of inhibition at 10000 µg/mL [3]: 22 mm | selectivity ratio [4]: 19 | MIC ([5]; Cr. neoformens (Table 3)): 0.78 µg/mL (≈ 1.08 µM) | MIC ([6]; S. cerevisae (Table 3)): 0.195 µg/mL (≈ 0.27 µM) | MIC [7, 14]: 0.25 µg/mL (≈ 0.346 µM) | MIC [7, 15]: 0.125 µg/mL (≈ 0.173 µM) | MIC [7, 16]: 0.025 µg/mL (≈ 0.0346 µM) | MIC [7, 17]: 0.25 µg/mL (≈ 0.346 µM) | MIC [7, 18]: 0.025 µg/mL (≈ 0.0346 µM)

CC(O)C(C)n1ncn(-c2ccc(N3CCN(c4ccc(OC[C@H]5CO[C@](Cn6cncn6)(c6ccc(Cl)cc6Cl)O5)cc4)CC3)cc2)c1=O (stereo partly shown) [Compound 3 + 4]
IC50/MIC ratio in words [4]: excellent results | Inhibition of P450 3A4 in words [8]: notably less inhibition of the P450 3A4 enzyme than the 2S,4R isomers

(2S,4R)-4-[4-[4-[4-[[2,4-dichlorophenyl)-2-(1H-1,2,4-triazol-1-ylmethyl)-1,3-dioxolan-4-yl]methoxy]phenyl]-1-piperazinyl]-2,4-dihydro-2-[(1S,2R)-(2-hydroxy-1-methylpropyl)]-3H-1,2,4,-triazol-3-one [Compound 2]
Antifungal MIC [1]: 0.137 µg/mL | Water solubility [2]: not detected | Area [2]: not even detected | Kirby-Bauer zone of inhibition [3]: 20 mm | Inhibition of P450 3A4 in words ([4]; testosterone 6β-hydroxylase activity): notably less inhibition of the P450 3A4 enzyme than the 2S,4R isomers | IC50/MIC ratio in words [4]: excellent results | Antifungal MIC ([5]; Cr. neoformens (Table 3)): 0.39 µg/mL | Antifungal MIC ([6]; S. cerevisae (Table 3)): 0.39 µg/mL | IC50 /MIC Ratio [8]: 70 | Antifungal MIC ([7]; C. albicans strain 10231 (Table 3)): 0.5 µg/mL | Antifungal MIC ([7]; C. albicans strain 28516 (Table 3)): 0.25 µg/mL | Antifungal MIC ([7]; C. albicans strain 28815 (Table 3)): 0.5 µg/mL | Antifungal MIC ([7]; C. albicans strain 44203 (Table 3)): 0.05 µg/mL | Antifungal MIC ([7]; C. albicans strain 44373 (Table 3)): 0.25 µg/mL | Antifungal MIC ([7]; C. albicans strain 62342 (Table 3)): 1.0 µg/mL | MIC ([7]; Candida albicans strain 44203 (Table 4)): 0.05 µg/mL | Water solubility [9]: < 0.01 µg/mL

C[C@@H](O)[C@H](C)n1ncn(-c2ccc(N3CCN(c4ccc(OC[C@@H]5CO[C@@](Cn6cncn6)(c6ccc(Cl)cc6Cl)O5)cc4)CC3)cc2)c1=O [Compound 9]
MIC [1]: 0.137 µg/mL (≈ 0.19 µM) | solubility [2]: 0.045 µg/mL (≈ 0.0624 µM) | zone of inhibition at 10000 µg/mL [3]: 20 mm | selectivity ratio [4]: 7.4 | MIC ([5]; Cr. neoformens (Table 3)): 0.78 µg/mL (≈ 1.08 µM) | MIC ([6]; S. cerevisae (Table 3)): 0.195 µg/mL (≈ 0.27 µM) | MIC [7, 14]: 0.25 µg/mL (≈ 0.346 µM) | MIC [7, 15]: 0.125 µg/mL (≈ 0.173 µM) | MIC [7, 16]: 0.05 µg/mL (≈ 0.0693 µM) | MIC [7, 17]: 0.25 µg/mL (≈ 0.346 µM) | MIC [7, 18]: 0.05 µg/mL (≈ 0.0693 µM)

C[C@H](OP(=O)(O)O)[C@@H](C)n1ncn(-c2ccc(N3CCN(c4ccc(OC[C@H]5CO[C@](Cn6cncn6)(c6ccc(Cl)cc6Cl)O5)cc4)CC3)cc2)c1=O [2-PO3 --NMG2]
solubility [9]: > 100000 µg/mL

CCC(C)n1ncn(-c2ccc(N3CCN(c4ccc(OC[C@@H]5CO[C@@](Cn6cncn6)(c6ccc(Cl)cc6Cl)O5)cc4)CC3)cc2)c1=O (stereo partly shown) [7 + 8]
MIC ([7]; Candida albicans): < 0.078 µg/mL

CCN(CC)CCNC(=O)c1ccc(NC(C)=O)cc1 [acetyl-procainamide]
Effect on cardiac repolarization [10]: prolongation of cardiac repolarization | Block of delayed rectifier (IK) [10]: ability to block a cellular potassium channel called the delayed rectifier (IK)

CC[C@H](C)n1ncn(-c2ccc(N3CCN(c4ccc(OC[C@@H]5CO[C@@](Cn6cncn6)(c6ccc(Cl)cc6Cl)O5)cc4)CC3)cc2)c1=O [Compound 7, reference compound]
MIC ([7]; Candida albicans): < 0.078 µg/mL

C[C@@H](OP(=O)(O)O)[C@H](C)n1ncn(-c2ccc(N3CCN(c4ccc(OC[C@H]5CO[C@](Cn6cncn6)(c6ccc(Cl)cc6Cl)O5)cc4)CC3)cc2)c1=O [1-PO3 --NMG2]
solubility [9]: > 100000 µg/mL

CC(C)NCC(O)c1ccc(NS(C)(=O)=O)cc1 (stereo not shown) [sotalol]
Effect on cardiac repolarization [10]: prolongation of cardiac repolarization | Block of delayed rectifier (IK) [10]: ability to block a cellular potassium channel called the delayed rectifier (IK)

CCC(C)n1ncn(-c2ccc(N3CCN(c4ccc(OC[C@H]5CO[C@](Cn6cncn6)(c6ccc(Cl)cc6Cl)O5)cc4)CC3)cc2)c1=O (stereo partly shown) [5 + 6]
MIC ([7]; Candida albicans): 0.156 µg/mL

C[C@H](OS(=O)(=O)O)[C@@H](C)n1ncn(-c2ccc(N3CCN(c4ccc(OC[C@H]5CO[C@](Cn6cncn6)(c6ccc(Cl)cc6Cl)O5)cc4)CC3)cc2)c1=O [Compound 2-sulfate]
MIC [7, 19]: 6.25 µg/mL (≈ 7.8 µM)

C=C[C@H]1C[N@@]2CC[C@H]1C[C@@H]2[C@@H](O)c1ccnc2ccc(OC)cc12 [quinidine]
Effect on cardiac repolarization [10]: prolongation of cardiac repolarization | Block of delayed rectifier (IK) [10]: ability to block a cellular potassium channel called the delayed rectifier (IK)

CC(O)C(C)n1ncn(-c2ccc(N3CCN(c4ccc(OC[C@@H]5CO[C@@](Cn6cncn6)(c6ccc(Cl)cc6Cl)O5)cc4)CC3)cc2)c1=O (stereo partly shown) [11 + 12]
MIC [1]: 0.137 µg/mL | solubility [2]: 0.59 µg/mL | zone of inhibition at 10000 µg/mL [3]: 25 mm | selectivity ratio [4]: 6.5 | MIC ([5]; Cr. neoformens (Table 3)): 0.78 µg/mL | MIC ([6]; S. cerevisae (Table 3)): 0.195 µg/mL | MIC ([7]; Candida albicans, C. albicans strain 10231 (Table 3), read-out: Antifungal MIC): 1 µg/mL | MIC [7, 14]: 0.25 µg/mL | MIC [7, 15]: 0.125 µg/mL | MIC [7, 16]: 0.05 µg/mL | MIC [7, 17]: 0.5 µg/mL | MIC ([7]; Candida albicans, C. albicans strain 62342 (Table 3), read-out: Antifungal MIC): 0.5 µg/mL | MIC [7, 18]: 0.05 µg/mL

CC(OP(=O)(O)O)C(C)n1ncn(-c2ccc(N3CCN(c4ccc(OC[C@H]5CO[C@](Cn6cncn6)(c6ccc(Cl)cc6Cl)O5)cc4)CC3)cc2)c1=O (stereo partly shown) [3 + 4-PO3 --NMG2]
solubility [9]: > 100000 µg/mL

C[C@H](OP(=O)(O)O)[C@@H](C)n1ncn(-c2ccc(N3CCN(c4ccc(OC[C@H]5CO[C@](Cn6cncn6)(c6ccc(Cl)cc6Cl)O5)cc4)CC3)cc2)c1=O [Compound 2-phosphate]
Ease of hydrolysis of phosphate ester [11]: most readily hydrolyzed compound in all three systems | Ease of hydrolysis of phosphate ester [12]: most readily hydrolyzed compound in all three systems | MIC ([5]; Cr. neoformens (Table 7, esters)): 12.5 µg/mL (≈ 15.6 µM) | MIC ([6]; S. cerevisae (Table 7, esters)): 12.5 µg/mL (≈ 15.6 µM) | Ease of hydrolysis of phosphate ester [13]: most readily hydrolyzed compound in all three systems | MIC [7, 19]: 12.5 µg/mL (≈ 15.6 µM)

CC[C@H](C)n1ncn(-c2ccc(N3CCN(c4ccc(OC[C@H]5CO[C@](Cn6cncn6)(c6ccc(Cl)cc6Cl)O5)cc4)CC3)cc2)c1=O [Compound 5, reference compound]
MIC ([7]; Candida albicans): 0.312 µg/mL (≈ 0.443 µM)

CC(O)C(C)n1ncn(-c2ccc(N3CCN(c4ccc(OC[C@H]5CO[C@](Cn6cncn6)(c6ccc(Cl)cc6Cl)O5)cc4)CC3)cc2)c1=O (stereo partly shown) [3 + 4]
solubility [2]: 1.97 µg/mL | zone of inhibition at 10000 µg/mL [3]: 23 mm | selectivity ratio [4]: 24 | MIC [7, 18]: 0.1 µg/mL | solubility [9]: 2 µg/mL

CC[C@@H](C)n1ncn(-c2ccc(N3CCN(c4ccc(OC[C@@H]5CO[C@@](Cn6cncn6)(c6ccc(Cl)cc6Cl)O5)cc4)CC3)cc2)c1=O [Compound 8, reference compound]
MIC ([7]; Candida albicans): < 0.078 µg/mL

CC[C@@H](C)n1ncn(-c2ccc(N3CCN(c4ccc(OC[C@H]5CO[C@](Cn6cncn6)(c6ccc(Cl)cc6Cl)O5)cc4)CC3)cc2)c1=O [Compound 6, reference compound]
MIC ([7]; Candida albicans): 0.312 µg/mL (≈ 0.443 µM)
